These results are taken from US10662203B2, “Pyrido[2,3-b]indole compounds for the treatment and prophylaxis of bacterial infection” (Hoffmann-La Roche Inc., priority 2017, dated 2020).

Data set [1] has as its system A. baumannii (ATCC17978). Put plainly: 50% growth inhibitory concentration (IC50) determination assay. It counts as cell-based. The following applies: A. baumannii ATCC17978; Iso-Sensitest broth; 0.098 = detection limit. In a few lines:
(§1)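 Each strain, inoculated at ~5×10^5 CFU/mL in Iso-Sensitest broth, faces a two-fold compound series spanning 50 to 0.097 μM final concentration. Incubation proceeds at 35±2° C, and cell growth is tracked by absorbance at λ=600 nm every 20 minutes over 16 h.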

The test system of data set [2] is K. pneumoniae (ATCC10031). Described as above. The data set is classed as cell-based. The settings on record: Klebsiella pneumoniae, Iso-Sensitest broth, 0.098 = detection limit. In a few lines:
as §1

In data set [3] the test system is S. aureus (ATCC29213). Described as above. The data set is classed as cell-based. The settings on record: Staphylococcus aureus, Iso-Sensitest broth, 0.098 = detection limit. In a few lines: as §1
Data set [4] deals with multiple species and strains. Description: Minimal inhibitory concentration (MIC) and MIC90 determination, broth microdilution (CLSI M07-A10). The following applies: S9: P. aeruginosa ATCC BAA-2113. The method, then:
Minimal Inhibitory Concentration (MIC) and MIC90 Determination:
The MIC of antibacterial compounds against multiple species and strains was determined using the broth microdilution method according to M07-A10 Clinical and Laboratory Standards Institute (CLSI) guidelines (CLSI (2015) Methods for dilution antimicrobial susceptibility tests for bacteria that grow aerobically; Approved Standard, Tenth Edition. CLSI Document M7-A10 (ISBN 1-56238-987-4). Wayne, Pa.: Clinical and Laboratory Standards Institute, 19087, USA.). In short, bacterial strain preparation was performed on D1 and D2. […] 5-10 well-isolated colonies of similar morphology were selected and re-streaked onto fresh agar plates using sterile loops and incubated for 20-24 hr at 35±2° C. Bacterial strains were subcultured two times to ensure fresh inoculums for MIC screening. […] Alternatively, 1-2 colonies were transferred into 500 μL of saline and OD600 was adjusted to ˜0.1 using an OD meter. Bacterial inoculum was diluted by 1:280 for Gram-positive strains and 1:400 for Gram-negative strains into corresponding medium broth (CAMHB, CAMHB+3% lysed horse blood, HTM) (e.g. 35.6 μL of inoculum into 10 mL of CAMHB or 25 μL of inoculum into 10 mL of CAMHB). […] Compound stock concentration=[(highest testing concentration)×100 μL/2 μL] (e.g. if the required highest testing concentration is 64 μg/mL in assay plates, stock concentration=64 μg/mL×100 μL/2 μL=3.2 mg/mL). […] of each well was transferred in a new MTP, which served as the test plate by subsequent inoculation. The bacterial suspension prepared above is dispensed at 98 μL/well within 15 minutes after preparation. Negative controls (lack of bacterial cells) and growth control wells (lack of compound) were included in all plates. MTPs were incubated for 18-24 hours at 35±2° C. in ambient air. The MIC was recorded and CFUs were calculated on Day 4. The assay plate was placed on the top of MIC reader, and the magnification mirror was adjusted to read each wells, recording growth status as raw data. Photo images of each assay plates were recorded using Q Count 530 (Spiral Biotech). The MIC value of each compound, expressed as […], was determined as the lowest concentration required for complete growth inhibition (no visible growth).
In general terms: Broth dilution looks for growth in wells or tubes with falling amounts of substance.

Data set [5] can be described thus: Single dose PK study (SDPK) in female CD-1 mouse. The data set is classed as in vivo. The following applies: MOUSE IV, 1.0 mg/kg-Solution. The method, then:
Single Dose PK Study (SDPK) in Female CD-1 Mouse: The single dose PK in female CD-1 mouse was performed to assess compound's pharmacokinetic properties. One group of animals were dosed via bolus intravenous (IV) of the respective compound. Blood samples (approximately 30 μL) were collected via saphenous vein at 5 mins, 15 min, 30 min, 1 hr, 2 hr, 4 hr and 7 hr. For last time point (24 hr), samples were collected via cardiac puncture while the mouse was under anesthesia. Blood samples were placed into tubes containing EDTA-K2 anticoagulant (2 μL of 0.5M per tube) and centrifuged at 3000 rpm for 10 minutes at 4° C. within half an hour to separate plasma from the samples. Following centrifugation, plasma samples were stored in polypropylene tubes, quick frozen over dry ice and kept at −70±10° C. until LC/MS/MS analysis. The pharmacokinetic parameters were calculated using non-compartmental module of WinNonlin® Professional 6.4.

The subject of data set [6] is HepG2 cells (ATCC HB-8065). Description: Cytotoxicity assay (HepG2, CellTiter-Blue cell viability). It counts as cell-based. The following applies: HepG2 cells, 3 days treatment; "*": the detection limit. In a few lines: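 HepG2 cells (1.2×10^4 per well) exposed to compounds for 3 days; viability then read by CellTiter-Blue fluorescence after 3 h at 37 °C. CC50 from four-parameter logistic fit.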
For orientation: The colour change of resazurin is a common sign of viable cells or microbes.

The term IC50 denotes the point on the concentration scale where inhibition reaches its midpoint. Broadly, the CC50 is the concentration giving 50% cytotoxicity. Read a low CC50 as harm at low concentration. Take `CNc1cc(F)c(F)c2c1[nH]c1ncc(-c3cnc4c(c3)c(=O)c(C(=O)O)cn4C3CCNC3)c(N(C)C)c12` (stereo not shown) [Example 1.02]: the IC50 in data set [1] was 0.693 µM; in data set [2], under 0.098 µM; in data set [3] it was under 0.098 µM. For the same molecule, in data set [4], the “MIC S9” value was 3.335. The AUC total in data set [5] stood at 291.0 ng·h/mL. For the same molecule, in data set [5] (female, CD-1, plasma, read-out: CL total), the clearance came to 58.8 mL/min/kg. The same molecule showed a CC50 in data set [6] of over 100000 nM.
